Data published in PubChem BioAssay AID2060485 (Molecular Pharmacology Branch, DTP, NCI, 2025).

Tested on: A375 multi-cell spheroids with HUVEC/MSC, viability
Experiment: Anticancer human tumor A375 cell line growth inhibition [GQUAD];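 note: spheroids exposed to compounds for seven days before readout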
Details: for IC50: curve of first compound; for viability, T/C: stronger effect = lower value
In short: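 Multi-cell-type spheroids of tumor cells with HUVEC and mesenchymal stem cells, treated with drug combinations. Concentrations descend in half-log steps from near clinical Cmax, or from 10 microM where Cmax is unknown; viability read-out.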

[1] = second compound 0.0316 µM, first compound 0.0316 µM
[2] = second compound 0.0316 µM, first compound 0.1 µM
[3] = second compound 0.0316 µM, first compound 0.316 µM
[4] = second compound 0.0316 µM, first compound 1 µM
[5] = second compound 0.0316 µM, first compound 3.16 µM
[6] = second compound 0.0316 µM, first compound 10 µM
[7] = second compound 0.1 µM, first compound 0.0316 µM
[8] = second compound 0.1 µM, first compound 0.1 µM
[9] = second compound 0.1 µM, first compound 0.316 µM
[10] = second compound 0.1 µM, first compound 1 µM
[11] = second compound 0.1 µM, first compound 3.16 µM
[12] = second compound 0.1 µM, first compound 10 µM
[13] = second compound 0.316 µM, first compound 0.0316 µM
[14] = second compound 0.316 µM, first compound 0.1 µM
[15] = second compound 0.316 µM, first compound 0.316 µM
[16] = second compound 0.316 µM, first compound 1 µM
[17] = second compound 0.316 µM, first compound 3.16 µM
[18] = second compound 0.316 µM, first compound 10 µM
[19] = second compound 1 µM, first compound 0.0316 µM
[20] = second compound 1 µM, first compound 0.1 µM
[21] = second compound 1 µM, first compound 0.316 µM
[22] = second compound 1 µM, first compound 1 µM
[23] = second compound 1 µM, first compound 3.16 µM
[24] = second compound 1 µM, first compound 10 µM
[25] = second compound 3.16 µM, first compound 0.0316 µM
[26] = second compound 3.16 µM, first compound 0.1 µM
[27] = second compound 3.16 µM, first compound 0.316 µM
[28] = second compound 3.16 µM, first compound 1 µM
[29] = second compound 3.16 µM, first compound 3.16 µM
[30] = second compound 3.16 µM, first compound 10 µM
[31] = second compound 10 µM, first compound 0.0316 µM
[32] = second compound 10 µM, first compound 0.1 µM
[33] = second compound 10 µM, first compound 0.316 µM
[34] = second compound 10 µM, first compound 1 µM
[35] = second compound 10 µM, first compound 3.16 µM
[36] = second compound 10 µM, first compound 10 µM

Which results are given for `CC1COCCN1c1cc(C2(S(C)(=N)=O)CC2)nc(-c2ccnc3[nH]ccc23)n1` (centres undefined) + CN(C)c1ccc(Nc2c3ccc(NC(=O)CCN4CCCC4)cc3nc3cc(NC(=O)CCN4CCCC4)ccc23)cc1?
IC50 (second compound 0.0316 µM): 6.09 µM; IC50 (second compound 0.1 µM): 5.86 µM; IC50 (second compound 0.316 µM): 6.26 µM; IC50 (second compound 1 µM): 7.3 µM; IC50 (second compound 3.16 µM): 7.46 µM; IC50 (second compound 10 µM): 6.4 µM; viability, T/C [1]: 102%; viability, T/C [2]: 105%; viability, T/C [3]: 102%; viability, T/C [4]: 108%; viability, T/C [5]: 68.5%; viability, T/C [6]: 36%; viability, T/C [7]: 108%; viability, T/C [8]: 104%; viability, T/C [9]: 106%; viability, T/C [10]: 102%; viability, T/C [11]: 67.8%; viability, T/C [12]: 34.5%; viability, T/C [13]: 105%; viability, T/C [14]: 101%; viability, T/C [15]: 107%; viability, T/C [16]: 107%; viability, T/C [17]: 71.9%; viability, T/C [18]: 35%; viability, T/C [19]: 106%; viability, T/C [20]: 95.7%; viability, T/C [21]: 114%; viability, T/C [22]: 108%; viability, T/C [23]: 68%; viability, T/C [24]: 43.2%; viability, T/C [25]: 118%; viability, T/C [26]: 95.8%; viability, T/C [27]: 97.2%; viability, T/C [28]: 108%; viability, T/C [29]: 78.3%; viability, T/C [30]: 40.3%; viability, T/C [31]: 95.5%; viability, T/C [32]: 98.3%; viability, T/C [33]: 101%; viability, T/C [34]: 96.8%; viability, T/C [35]: 64.8%; viability, T/C [36]: 40.6%

Which IC50 (second compound 0.0316 µM) does the source give for `CC1COCCN1c1cc(-c2ccnn2C)c2ccnc(-c3ccn[nH]3)c2n1` (centres undefined) + Cc1cnc(CNC(=O)c2c(=O)c3ccc(N4CCCN(C)CC4)nc3n3c2sc2ccccc23)cn1 here?
The IC50 was 0.279 µM.

And the IC50 (second compound 0.1 µM)?
The IC50 was 0.0743 µM.

What about the IC50 (second compound 0.316 µM) of the same compound?
Its IC50 is < 0.0316 µM.

And the IC50 (second compound 1 µM)?
The IC50 was < 0.0316 µM.

What about the IC50 (second compound 3.16 µM) of the same compound?
Its IC50 is < 0.0316 µM.

What about the IC50 (second compound 10 µM) of the same compound?
The IC50 was < 0.0316 µM.

And the viability, T/C [1]?
Its viability, T/C is 102%.

What about the viability, T/C [2] of the same compound?
Its viability, T/C is 69.3%.

And the viability, T/C [3]?
The viability, T/C was 51.9%.

And the viability, T/C [4]?
Its viability, T/C is 28.3%.

And the viability, T/C [5]?
The viability, T/C was 13.8%.

What about the viability, T/C [6] of the same compound?
The viability, T/C was 13.9%.

What about the viability, T/C [7] of the same compound?
The viability, T/C was 67.5%.

What about the viability, T/C [8] of the same compound?
The viability, T/C was 37.5%.

What about the viability, T/C [9] of the same compound?
The viability, T/C was 35.9%.

What about the viability, T/C [10] of the same compound?
The viability, T/C was 23.3%.

What about the viability, T/C [11] of the same compound?
Its viability, T/C is 13.7%.

And the viability, T/C [12]?
The viability, T/C was 9.98%.

What about the viability, T/C [13] of the same compound?
Its viability, T/C is 39.5%.

And the viability, T/C [14]?
The viability, T/C was 33.8%.

What about the viability, T/C [15] of the same compound?
The viability, T/C was 27.6%.

And the viability, T/C [16]?
Its viability, T/C is 21.7%.

And the viability, T/C [17]?
The viability, T/C was 13.9%.

And the viability, T/C [18]?
Its viability, T/C is 10.4%.

What about the viability, T/C [19] of the same compound?
Its viability, T/C is 38.2%.

And the viability, T/C [20]?
Its viability, T/C is 35%.

And the viability, T/C [21]?
Its viability, T/C is 29.6%.

What about the viability, T/C [22] of the same compound?
Its viability, T/C is 21.5%.

What about the viability, T/C [23] of the same compound?
The viability, T/C was 12.7%.

What about the viability, T/C [24] of the same compound?
The viability, T/C was 11.3%.

And the viability, T/C [25]?
Its viability, T/C is 30.8%.

And the viability, T/C [26]?
The viability, T/C was 30.2%.

What about the viability, T/C [27] of the same compound?
Its viability, T/C is 30.7%.

What about the viability, T/C [28] of the same compound?
Its viability, T/C is 22.4%.

What about the viability, T/C [29] of the same compound?
Its viability, T/C is 13.2%.

And the viability, T/C [30]?
Its viability, T/C is 10%.

What about the viability, T/C [31] of the same compound?
Its viability, T/C is 26.7%.

What about the viability, T/C [32] of the same compound?
Its viability, T/C is 27.9%.

And the viability, T/C [33]?
Its viability, T/C is 24.1%.

What about the viability, T/C [34] of the same compound?
Its viability, T/C is 16.9%.

And the viability, T/C [35]?
Its viability, T/C is 13.3%.

What about the viability, T/C [36] of the same compound?
The viability, T/C was 9.71%.
